Data as given in ChEMBL document CHEMBL1201862, “PubChem BioAssay data set” (2004).
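Following 48 hours of exposure in 96-well plates, responses at five concentrations were used to interpolate endpoints linearly. GI50 is the concentration that inhibits growth by half.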 Calls of active or inactive are those of the source. Rule as the data show it: active = GI50 up to about 1.1 µM and inactive = higher.

What was measured:
Assay in all cases: growth of human tumour cells (NCI), 48 h
Malme-3M = tested on: Malme-3M
UACC-62 = tested on: UACC-62
PC-3 = tested on: PC-3
CAKI-1 = tested on: CAKI-1
LOX IMVI = tested on: LOX IMVI
T47D = tested on: T47D
786-0 = tested on: 786-0
NCI-H226 = tested on: NCI-H226
M14 = tested on: M14
OVCAR-4 = tested on: OVCAR-4
UACC-257 = tested on: UACC-257
A498 = tested on: A498
HCC 2998 = tested on: HCC 2998
MDA-MB-231 = tested on: MDA-MB-231
SF-268 = tested on: SF-268
MDA-N = tested on: MDA-N
SF-295 = tested on: SF-295
SK-MEL-5 = tested on: SK-MEL-5
SK-MEL-28 = tested on: SK-MEL-28
MOLT-4 = tested on: MOLT-4

Row | Structure (SMILES) | GI50 (Malme-3M) | GI50 (UACC-62) | GI50 (PC-3) | GI50 (CAKI-1) | GI50 (LOX IMVI) | GI50 (T47D) | GI50 (786-0) | GI50 (NCI-H226) | GI50 (M14) | GI50 (OVCAR-4) | GI50 (UACC-257) | GI50 (A498) | GI50 (HCC 2998) | GI50 (MDA-MB-231) | GI50 (SF-268) | GI50 (MDA-N) | GI50 (SF-295) | GI50 (SK-MEL-5) | GI50 (SK-MEL-28) | GI50 (MOLT-4)
1 | O=C(O)c1cc(C(=O)O)cc(N2C(=O)c3ccccc3C2=O)c1 | > 100 µM (inactive) | > 100 µM (inactive) | > 100 µM (inactive) | > 100 µM (inactive) | > 100 µM (inactive) | > 100 µM (inactive) | > 100 µM (inactive) | > 100 µM (inactive) | > 100 µM (inactive) | > 100 µM (inactive) | > 100 µM (inactive) | > 100 µM (inactive) | > 100 µM (inactive) | > 100 µM (inactive) | > 100 µM (inactive) | > 100 µM (inactive) | > 100 µM (inactive) | > 100 µM (inactive) | > 100 µM (inactive) | –
2 | COc1ccc(C2=C(N)c3ccccc3C2=O)cc1 | > 100 µM (inactive) | > 100 µM (inactive) | > 100 µM (inactive) | > 100 µM (inactive) | > 100 µM (inactive) | > 100 µM (inactive) | 52.1 µM (inactive) | 45.6 µM (inactive) | > 100 µM (inactive) | 96.4 µM (inactive) | > 100 µM (inactive) | 81.8 µM (inactive) | > 100 µM (inactive) | 32.5 µM (inactive) | 33.7 µM (inactive) | > 100 µM (inactive) | 37.3 µM (inactive) | > 100 µM (inactive) | > 100 µM (inactive) | > 100 µM (inactive)
3 | O=C(C1OC1c1ccc(Cl)cc1)C12CC3CC(CC(C3)C1)C2 (centres undefined) | 22.4 µM (inactive) | 15.4 µM (inactive) | 29 µM (inactive) | 28.8 µM (inactive) | 4.02 µM (inactive) | 31.6 µM (inactive) | 16.3 µM (inactive) | 18.3 µM (inactive) | 17.8 µM (inactive) | 15.4 µM (inactive) | 21.6 µM (inactive) | 23.7 µM (inactive) | 19.1 µM (inactive) | 23.6 µM (inactive) | 20.8 µM (inactive) | 15.2 µM (inactive) | 18.2 µM (inactive) | 14.5 µM (inactive) | 16.5 µM (inactive) | 20 µM (inactive)
4 | C/C(=N\N)C(CN1CCOCC1)C(c1ccccc1)c1c(O)c2ccccc2oc1=O (centres undefined) | > 64.7 µM (inactive) | – | > 100 µM (inactive) | > 100 µM (inactive) | 26.4 µM (inactive) | 12.4 µM (inactive) | > 95.1 µM (inactive) | > 100 µM (inactive) | > 76.6 µM (inactive) | 77.3 µM (inactive) | > 100 µM (inactive) | 69.8 µM (inactive) | > 100 µM (inactive) | 91 µM (inactive) | > 100 µM (inactive) | > 100 µM (inactive) | > 100 µM (inactive) | > 64.9 µM (inactive) | > 100 µM (inactive) | 40.5 µM (inactive)
5 | Cc1cccc(NC(=S)NNC(=O)c2cc(-c3ccccc3)nc3ccccc23)c1 | 25 µM (inactive) | 38.5 µM (inactive) | 27.5 µM (inactive) | 32.7 µM (inactive) | – | 34.1 µM (inactive) | 29.7 µM (inactive) | 34.4 µM (inactive) | 35 µM (inactive) | 57.9 µM (inactive) | 33.4 µM (inactive) | 20.2 µM (inactive) | 25.1 µM (inactive) | 27.9 µM (inactive) | 42 µM (inactive) | 45.7 µM (inactive) | – | 19.9 µM (inactive) | 38.4 µM (inactive) | 27.5 µM (inactive)
6 | Cc1nc(-n2nc(-c3ccccc3)cc2-c2ccccc2)sc1C(=O)/C=C/c1ccc([N+](=O)[O-])cc1 | 34.2 µM (inactive) | 19.4 µM (inactive) | 17.2 µM (inactive) | 24.9 µM (inactive) | 15.7 µM (inactive) | 9.25 µM (inactive) | 13 µM (inactive) | 57.8 µM (inactive) | 27.6 µM (inactive) | 34.1 µM (inactive) | 34.5 µM (inactive) | > 43.8 µM (inactive) | 16.2 µM (inactive) | 33.1 µM (inactive) | 16.7 µM (inactive) | 19.2 µM (inactive) | > 46.6 µM (inactive) | 16.6 µM (inactive) | 28.7 µM (inactive) | 10.9 µM (inactive)
7 | OCCn1cnc2c(SCc3ccccc3)ncnc21 | > 100 µM (inactive) | > 100 µM (inactive) | 61 µM (inactive) | > 100 µM (inactive) | 61.1 µM (inactive) | > 100 µM (inactive) | > 100 µM (inactive) | > 100 µM (inactive) | > 100 µM (inactive) | > 100 µM (inactive) | > 100 µM (inactive) | > 100 µM (inactive) | > 100 µM (inactive) | > 100 µM (inactive) | 71.8 µM (inactive) | > 100 µM (inactive) | > 100 µM (inactive) | > 100 µM (inactive) | > 100 µM (inactive) | –
8 | O=C1CSC(c2ccccc2O)N1c1ccc(-c2ccc(-n3c(-c4ccccc4)nc4ccccc4c3=O)cc2)cc1 (centres undefined) | 17.2 µM (inactive) | 27.7 µM (inactive) | 27.7 µM (inactive) | 26.1 µM (inactive) | 25.7 µM (inactive) | 23 µM (inactive) | 18.7 µM (inactive) | 37.6 µM (inactive) | 38.5 µM (inactive) | 31 µM (inactive) | 50.1 µM (inactive) | 70 µM (inactive) | – | 36.9 µM (inactive) | 45.3 µM (inactive) | 35.5 µM (inactive) | 22.5 µM (inactive) | – | 37.9 µM (inactive) | 25.4 µM (inactive)
9 | COc1ccc(N2C(=O)C3c4[nH]c5cccc(C)c5c4C4CCC(C(C)(C)C)CC4C3C2=O)cc1 (centres undefined) | > 10 µM (inactive) | > 10 µM (inactive) | > 10 µM (inactive) | > 10 µM (inactive) | 8.3 µM (inactive) | > 10 µM (inactive) | – | > 10 µM (inactive) | > 10 µM (inactive) | 0.796 µM (active) | – | > 10 µM (inactive) | > 10 µM (inactive) | > 10 µM (inactive) | > 10 µM (inactive) | > 10 µM (inactive) | > 10 µM (inactive) | > 10 µM (inactive) | > 10 µM (inactive) | > 10 µM (inactive)
10 | O=C(CCCN1CCC2(CC1)CC(=O)N(N1CCOCC1)C2=O)c1ccc(F)cc1 | > 100 µM (inactive) | > 100 µM (inactive) | > 100 µM (inactive) | > 100 µM (inactive) | > 100 µM (inactive) | > 100 µM (inactive) | > 100 µM (inactive) | 99.3 µM (inactive) | > 100 µM (inactive) | – | > 100 µM (inactive) | > 100 µM (inactive) | – | > 100 µM (inactive) | > 100 µM (inactive) | > 100 µM (inactive) | > 100 µM (inactive) | > 100 µM (inactive) | > 100 µM (inactive) | > 100 µM (inactive)
11 | NC(Cc1ccccc1)c1nn[nH]n1 (centres undefined) | > 100 µM (inactive) | > 100 µM (inactive) | > 100 µM (inactive) | > 100 µM (inactive) | > 100 µM (inactive) | > 100 µM (inactive) | > 100 µM (inactive) | > 100 µM (inactive) | > 100 µM (inactive) | > 100 µM (inactive) | > 100 µM (inactive) | > 100 µM (inactive) | – | > 100 µM (inactive) | > 100 µM (inactive) | > 100 µM (inactive) | > 100 µM (inactive) | > 100 µM (inactive) | > 100 µM (inactive) | < 0.01 µM (active)
12 | Cc1c(-c2ccccc2)c(C#N)c2nnn(-c3ccc([N+](=O)[O-])cc3)c(=O)n12 | 24.2 µM (inactive) | 37.1 µM (inactive) | 3.48 µM (inactive) | 29.9 µM (inactive) | 17.5 µM (inactive) | 21.9 µM (inactive) | 5.14 µM (inactive) | 13.2 µM (inactive) | – | 10.4 µM (inactive) | > 100 µM (inactive) | 19.9 µM (inactive) | 26.6 µM (inactive) | 8.15 µM (inactive) | 12.7 µM (inactive) | 40.6 µM (inactive) | 18.7 µM (inactive) | 33 µM (inactive) | 32.6 µM (inactive) | –
13 | C[N+]1(C)[C@@H]2CC[C@H]1C[C@@H](OC(=O)C(CO)c1ccccc1)C2 (some centres undefined) [ATROPINE METHYLBROMIDE] | > 100 µM (inactive) | > 100 µM (inactive) | > 100 µM (inactive) | > 100 µM (inactive) | > 100 µM (inactive) | > 100 µM (inactive) | > 100 µM (inactive) | > 100 µM (inactive) | > 100 µM (inactive) | > 100 µM (inactive) | > 100 µM (inactive) | > 100 µM (inactive) | – | > 100 µM (inactive) | > 100 µM (inactive) | > 100 µM (inactive) | > 100 µM (inactive) | > 100 µM (inactive) | > 100 µM (inactive) | > 100 µM (inactive)
14 | COc1cc(OC)c(C2(c3c(OC(C)C)c(=O)c3=O)SCCCS2)cc1OC | > 100 µM (inactive) | > 100 µM (inactive) | > 100 µM (inactive) | > 100 µM (inactive) | > 100 µM (inactive) | > 100 µM (inactive) | > 100 µM (inactive) | > 100 µM (inactive) | > 100 µM (inactive) | > 100 µM (inactive) | > 100 µM (inactive) | > 100 µM (inactive) | > 100 µM (inactive) | > 100 µM (inactive) | > 100 µM (inactive) | > 100 µM (inactive) | > 100 µM (inactive) | > 100 µM (inactive) | > 100 µM (inactive) | –
